The record followed here is patent publication US20250382301A1 (Arizona Board of Regents on Behalf of the University of …, priority 2022, published 2025).

What is called EC50 is the concentration needed to bring the measured effect to its halfway point. Read a high EC50 as a less potent agent.

For the assay, the system named is WNT signaling (TopGFP reporter in Human Colonic Epithelial Cells (HCEC)). Kind of assay: WNT Reporter Assay (TopGFP reporter). The format is cell-based. Conditions: stimulated with 10 μM CHIR99021, 24 hours, TopGFP/mCherry. (In a reporter assay the amount or activity of a reporter protein is the signal.)

Protocol: WNT Reporter Assay: Human Colonic Epithelial Cells (HCEC) were cultured using 1×DMEM supplemented with 1% penicillin/streptomycin, 1% Glutamax, and 10% fetal bovine serum in 5% CO2 at 37° C. These cells were previously engineered to express the TopGFP reporter (Addgene #24304) using second generation lentiviral techniques. For the Wnt reporter assay, cells were seeded at 2000 cells per well in a 384-well black screenstar imaging microplates (Greiner #781866) and allowed to adhere overnight. The following day cells were stimulated to induce the Wnt pathway using 10 μM CHIR99021 (Selleck #S1263). […] Cells were incubated for 24 hours before fixing for 30 minutes with 4% paraformaldehyde/sucrose solution. Cells were permeabilized with 0.1% triton-x in PBS for 10 minutes and stained for DAPI for 30 minutes. Plates were imaged on a Nikon Ti2 Eclipse fluorescent microscope for DAPI, GFP, and mCherry. Using Nikon Elements software for analysis, nuclei were segmented based on DAPI and mean object intensity per cell for both TopGFP and the internal control (mCherry) was measured. To calculate the amount of Wnt activity, we took the mean intensity of TopGFP and divided it by the mean intensity of mCherry per cell to normalize individual cells. Curves and EC50s were plotted and calculated using Graphpad Prism software.

As to `Nc1cc(-c2ccc3ncnc(N4CCN(c5ccccc5)C(=O)C4)c3c2)ccn1` [Compound 38, 4-(6-(2-aminopyridin-4-yl)quinazolin-4-yl)-1-phenylpiperazin-2-one], the concentration for a half-maximal effect (EC50) (Homo sapiens) fell in the range of 100 to 1000 nM.
In turn, `Nc1cc(-c2ccc3ncnc(N4CCN(c5ccc(F)cc5)CC4)c3n2)ccn1` [Compound 24, 4-(4-(4-(4-fluorophenyl)piperazin-1-yl)pyrido[3,2-d]pyrimidin-6-yl)pyridin-2-amine] yielded an EC50 (Homo sapiens) below 100 nM.
For the compound “4-(4-(2-fluorophenyl)piperazin-1-yl)-6-(1H-pyrazol-3-yl)pyrido[3,2-d]pyrimidine [Compound 23]”, the EC50 is below 100 nM.
For the compound `Nc1cc(-c2ccc3ncnc(N4CCN(c5ccncc5)CC4)c3c2)ccn1` [Compound 6, 4-(4-(4-(pyridin-4-yl)piperazin-1-yl)quinazolin-6-yl)pyridin-2-amine], the concentration giving a half-maximal response (EC50) (Homo sapiens) is 100 to 1000 nM.
On the same count and under the same terms, the value for `Nc1cc(-c2ccc3ncnc(N4CCN(c5ccc(F)cc5)CC4)c3c2)ccn1` [Compound 31, 4-(4-(4-(4-fluorophenyl)piperazin-1-yl)quinazolin-6-yl)pyridin-2-amine] was 100 to 1000 nM.
Take “6-(1H-pyrazol-3-yl)-4-(4-(pyridin-2-yl)piperazin-1-yl)pyrido[3,2-d]pyrimidine [Compound 18]”: the concentration giving a half-maximal response (EC50) is below 100 nM.
For the setting “Homo sapiens”, `Nc1cc(-c2ccc3nccc(N4CCN(c5ccccc5)CC4)c3c2)ccn1` [Compound 25, 4-(4-(4-phenylpiperazin-1-yl)quinolin-6-yl)pyridin-2-amine] came in with a 50% effective concentration (EC50) below 100 nM.
On the same count and under the same terms, the value for `Nc1cc(-c2ccc3nccc(N4CCN(c5ccccc5F)CC4)c3c2)ccn1` [Compound 33, 4-(4-(4-(2-fluorophenyl)piperazin-1-yl)quinolin-6-yl)pyridin-2-amine] was 100 to 1000 nM; that for `Nc1cc(-c2ccc3ncnc(N4CCN(c5ccncn5)CC4)c3c2)ccn1` [Compound 9, 4-(4-(4-(pyrimidin-4-yl)piperazin-1-yl)quinazolin-6-yl)pyridin-2-amine] was 100 to 1000 nM.
Same read-out and setting: the value for `Nc1cc(-c2ccc3ncnc(N4CCC5(CCN(c6ccccn6)CC5)C4)c3c2)ccn1` [Compound 64, 4-(4-(8-(pyridin-2-yl)-2,8-diazaspiro[4.5]decan-2-yl)quinazolin-6-yl)pyridin-2-amine] was 100 to 1000 nM.
Still for that read-out and setting: the value for `C[C@H]1CN(c2ccccn2)CCN1c1ncnc2ccc(-c3ccnc(N)c3)cc12` [Compound 45, (S)-4-(4-(2-methyl-4-(pyridin-2-yl)piperazin-1-yl)quinazolin-6-yl)pyridin-2-amine] was below 100 nM.
The compound `Nc1cc(-c2ccc3ncnc(N4CCN(c5ccccn5)CC4)c3n2)ccn1` [Compound 5, 4-(4-(4-(pyridin-2-yl)piperazin-1-yl)pyrido[3,2-d]pyrimidin-6-yl)pyridin-2-amine] displayed a concentration for a half-maximal effect (EC50) (Homo sapiens) below 100 nM.
The same measure, in the same setting: the value for `Fc1ccccc1N1CCN(c2ncnc3ccc(-c4cnoc4)nc23)CC1` [Compound 40, 4-(4-(4-(2-fluorophenyl)piperazin-1-yl)pyrido[3,2-d]pyrimidin-6-yl)isoxazole] was 100 to 1000 nM.
The compound “6-(1-methyl-1H-pyrazol-3-yl)-4-(4-(5-(trifluoromethyl)pyridin-2-yl)piperazin-1-yl)pyrido[3,2-d]pyrimidine [Compound 21]” yielded an EC50 above 1000 nM.
With `Cn1cc(-c2ccc3ncnc(N4CCN(c5ccccn5)CC4)c3c2)cn1` [Compound 7, 6-(1-methyl-1H-pyrazol-4-yl)-4-(4-(pyridin-2-yl)piperazin-1-yl)quinazoline], the EC50 (Homo sapiens) fell in the range of 100 to 1000 nM.
Regarding `Nc1cc(-c2ccc3nccc(N4CCN(c5ccccc5F)CC4)c3n2)ccn1` [Compound 52, 4-(8-(4-(2-fluorophenyl)piperazin-1-yl)-1,5-naphthyridin-2-yl)pyridin-2-amine], for the setting “Homo sapiens”, the EC50 was below 100 nM.
On the same count and under the same terms, next, `Nc1cc(-c2ccc3ncnc(N4[C@@H]5CC[C@H]4CN(c4ccccn4)C5)c3c2)ccn1` [Compound 54, 4-(4-((1R,5S)-3-(pyridin-2-yl)-3,8-diazabicyclo[3.2.1]octan-8-yl)quinazolin-6-yl)pyridin-2-amine]: 100 to 1000 nM; `O=C1CN(c2ncnc3ccc(-c4cn[nH]c4)cc23)CCN1c1ccccc1` [Compound 32, 4-(6-(1H-pyrazol-4-yl)quinazolin-4-yl)-1-phenylpiperazin-2-one]: below 100 nM.
Still for that read-out and setting: next, `Cc1n[nH]cc1-c1ccc2ncnc(N3CCN(c4ccccn4)CC3)c2c1` [Compound 60, 6-(3-methyl-1H-pyrazol-4-yl)-4-(4-(pyridin-2-yl)piperazin-1-yl)quinazoline]: above 1000 nM; `Nc1cc(-c2ccc3ncnc(N4CCN(c5ncccc5F)CC4)c3c2)ccn1` [Compound 61, 4-(4-(4-(3-fluoropyridin-2-yl)piperazin-1-yl)quinazolin-6-yl)pyridin-2-amine]: below 100 nM; `FC(F)c1cc(-c2ccc3ncnc(N4CCN(c5ccccn5)CC4)c3c2)ccn1` [Compound 8, 6-(2-(difluoromethyl)pyridin-4-yl)-4-(4-(pyridin-2-yl)piperazin-1-yl)quinazoline]: 100 to 1000 nM.
In turn, `Cc1cc(-c2ccc3ncnc(N4CCN(c5ccccn5)CC4)c3c2)ccn1` [Compound 12, 6-(2-methylpyridin-4-yl)-4-(4-(pyridin-2-yl)piperazin-1-yl)quinazoline] gave an EC50 (Homo sapiens) above 1000 nM.
Consider `Nc1cc(-c2ccc3nccc(N4CCN(c5ccccn5)CC4)c3c2)ccn1` [Compound 29], for which the concentration giving a half-maximal response (EC50) (Homo sapiens) was below 100 nM.
Still for that read-out and setting: next, `Nc1cc(-c2ccc3ncnc(N4CCN(c5ccc(O)cc5)CC4)c3n2)ccn1` [Compound 28, 4-(4-(6-(2-aminopyridin-4-yl)pyrido[3,2-d]pyrimidin-4-yl)piperazin-1-yl)phenol]: below 100 nM.
Still for that read-out and setting: the value for `Nc1cc(-c2ccc3ncnc(N4C[C@H]5CN(c6ccccn6)C[C@H]5C4)c3c2)ccn1` [Compound 66, 4-(4-((3aR,6aS)-5-(pyridin-2-yl)hexahydropyrrolo[3,4-c]pyrrol-2(1H)-yl)quinazolin-6-yl)pyridin-2-amine] was 100 to 1000 nM.
Still for that read-out and setting: the value for `Nc1cc(-c2ccc3ncnc(N4CCN(c5ccc(C(F)(F)F)cn5)CC4)c3n2)ccn1` [Compound 16, 4-(4-(4-(5-(trifluoromethyl)pyridin-2-yl)piperazin-1-yl)pyrido[3,2-d]pyrimidin-6-yl)pyridin-2-amine] was below 100 nM.
`Fc1cccnc1N1CCN(c2ncnc3ccc(-c4c[nH]c5ncccc45)cc23)CC1` [Compound 57, 4-(4-(3-fluoropyridin-2-yl)piperazin-1-yl)-6-(1H-pyrrolo[2,3-b]pyridin-3-yl)quinazoline]: where the note is “Homo sapiens”, the EC50 is below 100 nM.
Same read-out and setting: the value for `Fc1ccc(CN2CCCN(c3ncnc4ccc(-c5cn[nH]c5)cc34)CC2)cc1` [Compound 36, 4-(4-(4-fluorobenzyl)-1,4-diazepan-1-yl)-6-(1H-pyrazol-4-yl)quinazoline] was below 100 nM; that for `Nc1cc(-c2ccc3ncnc(N4CCC(c5ccc(F)cc5F)CC4)c3c2)ccn1` [Compound 63, 4-(4-(4-(2,4-difluorophenyl)piperidin-1-yl)quinazolin-6-yl)pyridin-2-amine] was 100 to 1000 nM.
Still for that read-out and setting: next, `c1ccc(N2CCN(c3ncnc4ccc(-c5cn[nH]c5)cc34)CC2)nc1` [Compound 14, 6-(1H-pyrazol-4-yl)-4-(4-(pyridin-2-yl)piperazin-1-yl)quinazoline]: below 100 nM.
Still for that read-out and setting: the value for `Nc1cc(-c2ccc3ncnc(N4CCC(c5ccccc5F)CC4)c3c2)ccn1` [Compound 48, 4-(4-(4-(2-fluorophenyl)piperidin-1-yl)quinazolin-6-yl)pyridin-2-amine] was 100 to 1000 nM.
For the setting “Homo sapiens”, `Nc1cc(-c2ccc3ncnc(N4C[C@H]5C[C@@H]4CN5c4ccccn4)c3c2)ccn1` [Compound 55, 4-(4-((1R,4R)-5-(pyridin-2-yl)-2,5-diazabicyclo[2.2.1]heptan-2-yl)quinazolin-6-yl)pyridin-2-amine] yielded an EC50 above 1000 nM.
In turn, `COc1cc2c(cc1OC)CN(c1ncnc3ccc(-c4ccnc(N)c4)cc13)CC2` [Compound 35, 4-(4-(6,7-dimethoxy-3,4-dihydroisoquinolin-2(1H)-yl)quinazolin-6-yl)pyridin-2-amine] displayed an EC50 (Homo sapiens) of 100 to 1000 nM.
Same read-out and setting: next, `O=c1ccccn1C1CCN(c2ncnc3ccc(-c4cn[nH]c4)cc23)CC1` [Compound 59, 1-(1-(6-(1H-pyrazol-4-yl)quinazolin-4-yl)piperidin-4-yl)pyridin-2(1H)-one]: below 100 nM.
Where the note is “Homo sapiens”, `Nc1cc(-c2ccc3ncnc(N4CCN(c5ncccn5)CC4)c3c2)ccn1` [Compound 10, 4-(4-(4-(pyrimidin-2-yl)piperazin-1-yl)quinazolin-6-yl)pyridin-2-amine] returned a concentration for a half-maximal effect (EC50) of 100 to 1000 nM.
The same measure, in the same setting: next, `Nc1cc(-c2ccc3nccc(N4CCN(c5ccccc5)CC4)c3n2)ccn1` [Compound 53, 4-(8-(4-phenylpiperazin-1-yl)-1,5-naphthyridin-2-yl)pyridin-2-amine]: below 100 nM.
Still for that read-out and setting: next, `Nc1cc(-c2ccc3ncnc(N4CCN(c5ccc(O)cc5)CC4)c3c2)ccn1` [Compound 27, 4-(4-(6-(2-aminopyridin-4-yl)quinazolin-4-yl)piperazin-1-yl)phenol]: 100 to 1000 nM; `Nc1cc(-c2ccc3ncnc(N4CCN(c5ccccc5)CC4)c3c2)ccn1` [Compound 2, 4-(4-(4-phenylpiperazin-1-yl)quinazolin-6-yl)pyridin-2-amine]: below 100 nM.
On the same count and under the same terms, the value for `COc1cc2c(cc1OC)CN(c1ncnc3ccc(-c4cnn(C)c4)cc13)CC2` [Compound 47, 4-(6,7-dimethoxy-3,4-dihydroisoquinolin-2(1H)-yl)-6-(1-methyl-1H-pyrazol-4-yl)quinazoline] was above 1000 nM; that for `Cn1cc(-c2ccc3ncnc(N4CCN(Cc5ccc(F)cc5)CC4)c3c2)cn1` [Compound 42, 4-(4-(4-fluorobenzyl)piperazin-1-yl)-6-(1-methyl-1H-pyrazol-4-yl)quinazoline] was above 1000 nM.
With `Nc1cc(-c2ccc3ncnc(N4CCN(c5cccnc5)CC4)c3c2)ccn1` [Compound 37, 4-(4-(4-(pyridin-3-yl)piperazin-1-yl)quinazolin-6-yl)pyridin-2-amine], the EC50 (Homo sapiens) is below 100 nM.
